Results reported in patent US20140303258A1, “Method of solubilizing insoluble bioactive compounds using triterpene glycosides and compositions thereof” (priority 2013, published 2014).

Assays:
[1] = Behaviour of the bioactive in distilled water at 37° C. without solubilizer; format: physicochemical; conditions: 2 grams in 200 ml distilled water, no solubilizer
Protocol: (§1) • A. Two beakers each containing 200 ml distilled water (37° C.) were taken. • B. To each beaker, 2 grams commercially available curcuminoids (Curcumin C3 Complex®) was added and gently mixed. […] To the first beaker, 0.35 gram of Bacopa glycosides including 25% w/w to 75% w/w of total Bacosides (Bacopin®) was added and gently mixed for about 15 minutes. […] This corresponded to a Critical Micelle Concentration (CMC) of 17.5% • D. To the second beaker, 0.40 gram of Centella glycosides including at least 8% w/w of total triterpenes (Centellin®) was added and gently mixed for about 15 minutes. […] This corresponded to Critical Micelle Concentration (CMC) of 20.0%.
(§2) • A. Five beakers each containing 200 ml distilled water at 37° C. were taken. To 3 beakers were added 2 gm of bioactive compounds forskolin (Forslean® 95%), boswellic acids (Boswellin® 70%) and pterostilbene 99% respectively. To the other 2 beakers were added 2 gm of Saw Palmetto extract 85% and Ginger Soft extract SCFE 35% respectively. […] The Critical Micelle Concentration (CMC) for each system was determined (Table A; FIGS. 3A, 3B, 3C, 3D and 3E)
(§3) • A. To a beaker containing 200 ml distilled water (37° C.) was added 2 grams of tetrahydrocurcuminoids (C3 Reduct®). […] The majority (˜70%) of tetrahydrocurcuminoids was not observable at the bottom of the beaker anymore due to formation of emulsion (FIG. 4)

[2] = format: physicochemical
Protocol: as §1, §2, §3

solubility in distilled water (observation) [1]	CMC % (wt/wt) [2]	Compound
did not go into solution	20% (wt/wt)	C=C[C@@]1(C)CC(=O)[C@]2(O)[C@@]3(C)[C@@H](O)CCC(C)(C)[C@@H]3[C@H](O)[C@H](OC(C)=O)[C@@]2(C)O1 [ForsLean 95%, forskolin]
did not go into solution	14.50% (wt/wt)	COc1cc(/C=C/c2ccc(O)cc2)cc(OC)c1 [Pterostilbene 99%, pterostilbene]
